Source: patent publication US7704696B2, “Screening of compounds for OCTN2 transporter activity” (XenoPort, Inc., priority 2005, dated 2010)
Values belong to the molecule of their own block, whether it stands above or below them.

How the values were obtained:
hOCTN2 [1] = molecular target: T1, hOCTN2 (Homo sapiens, UniProt O76082); test: Oocyte uptake assay, oocytes injected with OCTN2 cRNA; format: cell-based; design: expressed in transfected cells; host or cells: Xenopus oocytes injected with OCTN2 cRNA; details: Xenopus oocytes
T1 sequence (O76082 1-557): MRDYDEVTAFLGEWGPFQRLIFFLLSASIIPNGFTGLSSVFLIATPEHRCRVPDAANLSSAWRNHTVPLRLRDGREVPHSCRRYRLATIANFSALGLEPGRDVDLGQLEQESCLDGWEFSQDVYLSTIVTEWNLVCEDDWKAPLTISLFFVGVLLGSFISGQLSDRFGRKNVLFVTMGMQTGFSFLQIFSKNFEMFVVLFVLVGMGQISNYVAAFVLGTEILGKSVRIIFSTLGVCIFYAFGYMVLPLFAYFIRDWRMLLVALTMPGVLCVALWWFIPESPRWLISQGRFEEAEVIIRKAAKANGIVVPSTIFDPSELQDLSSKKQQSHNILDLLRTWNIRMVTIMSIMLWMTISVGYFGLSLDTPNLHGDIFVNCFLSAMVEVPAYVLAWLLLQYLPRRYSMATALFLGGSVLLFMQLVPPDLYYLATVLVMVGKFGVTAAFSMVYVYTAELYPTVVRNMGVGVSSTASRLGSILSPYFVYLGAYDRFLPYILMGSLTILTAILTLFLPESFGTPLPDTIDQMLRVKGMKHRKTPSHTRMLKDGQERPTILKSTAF

hOCTN2 [2] = molecular target: T1, hOCTN2; test: hOCTN2 competition uptake assay (3H-carnitine uptake into CHO-TREx-hOCTN2 cells); format: cell-based; design: expressed in transfected cells; host or cells: CHO-TREx cells (CHO-TREx-OCTN2 inducible cell line)
Description: A modified competition uptake assay was developed to determine the ability of a test compound(s) to inhibit the uptake of radiolabeled substrates into CHO-TREx-hOCTN2 cells induced to over-express hOCTN2. The results are stated as affinities (IC50).
The competition uptake assay was prepared as follows: Compounds were prepared for assay by diluting a 100 mM stock concentration (in DMSO) to the appropriate working concentration. Typically, seven-point dose response curves were prepared starting at a final assay concentration of 1 mM and carrying out three-fold dilutions. […]
Scintillation fluid (200 μl) (Optiphase Supermix (Perkin Elmer) was added to each well, and the plate was covered with a 96-well adhesive plate cover and placed on a shaker for 10 minutes. The plates were counted on a 96-well plate scintillation counter for 60 sec/well. The data were analyzed using a sigmoidal dose response curve-fitting program (Prism, GraphPad, Inc, San Diego, Calif.; equation: one-site competition).
FIG. 7 depicts the results of a competition experiment using CHO-TREx-OCTN2 cells. ^3H-carnitine was used as the substrate and unlabeled carnitine was used as the competitor. […] Non-specific uptake was determined by measuring the uptake into cells not induced to express the transporter (“no tet”). […]

hOCTN2 [3] = molecular target: T1, hOCTN2; test: hOCTN2 direct uptake assay (LC-MS-MS, CHO-TREx-hOCTN2 cells); format: cell-based; design: expressed in transfected cells; host or cells: CHO-TREx cells (CHO-TREx-OCTN2 inducible cell line); details: CHO-TREx-hOCTN2 cells induced to express hOCTN2, specific uptake
Description: (§1) A modified direct uptake assay was developed to determine the ability of test compounds to be transported into CHO-TREx cells induced to over-express hOCTN2. Four concentrations (bracketing the affinity as measured by competition assays) per compound were routinely tested. Non-specific uptake was determined by measuring the uptake into cells not induced to express the transporter (“no tet”).
(§2) The direct uptake assays were prepared as follows: Compounds were prepared for assay by diluting a 100 mM stock concentration (in DMSO or water, depending on compound solubility) to the appropriate working concentration. Typically, four concentrations bracketing the IC50 were tested. The highest test concentration for each compound was made in an Eppendorf tube and diluted into HBSS. The samples were robustly vortexed and centrifuged for 10 minutes at 13,200 rpm to spin down any precipitate. The supernatant from these samples (˜150 μl/well) was carefully removed and placed into six wells of row A (cmpd 1: A1-6; cmpd 2: A7-12) or row E (cmpd 3: E1-6; cmpd 4: E7-12) of a 96-well polypropylene “compound” plate. Three additional 2-fold dilutions were made in the subsequent rows (B-D or […]) in HBSS. […]

PgP = molecular target: T2, PgP (Homo sapiens, UniProt P08183); test: Transwell monolayer efflux assay, MDCK cells with TREx-PgP; format: cell-based
T2 construct: expressed in transfected cells; host or cells: MDCK cells
Description: Transwell monolayer efflux assays can be performed by transfecting MDCK cells with the tetracycline-inducible TREx-PgP expression vector. The cells optionally can be transfected with a nucleic acid encoding the transporter of interest. The transfected cells are seeded on polycarbonate filter membranes in transwell dishes and grown for 3-5 days, yielding a polarized monolayer with tight junctions between cells.

[4] = substrate: C[N+](C)(C)CC(O)CC(=O)[O-]; test: hOCTN2 direct uptake assay (LC-MS-MS, CHO-TREx-hOCTN2 cells); format: cell-based, human; details: other: CHO-TREx-hOCTN2 cells induced to express hOCTN2, specific uptake
Description: as §1, §2

[5] = 2.5 nM 3H-vinblastine, in the presence of 250 μM verapamil

T2 sequence (P08183 whole entry): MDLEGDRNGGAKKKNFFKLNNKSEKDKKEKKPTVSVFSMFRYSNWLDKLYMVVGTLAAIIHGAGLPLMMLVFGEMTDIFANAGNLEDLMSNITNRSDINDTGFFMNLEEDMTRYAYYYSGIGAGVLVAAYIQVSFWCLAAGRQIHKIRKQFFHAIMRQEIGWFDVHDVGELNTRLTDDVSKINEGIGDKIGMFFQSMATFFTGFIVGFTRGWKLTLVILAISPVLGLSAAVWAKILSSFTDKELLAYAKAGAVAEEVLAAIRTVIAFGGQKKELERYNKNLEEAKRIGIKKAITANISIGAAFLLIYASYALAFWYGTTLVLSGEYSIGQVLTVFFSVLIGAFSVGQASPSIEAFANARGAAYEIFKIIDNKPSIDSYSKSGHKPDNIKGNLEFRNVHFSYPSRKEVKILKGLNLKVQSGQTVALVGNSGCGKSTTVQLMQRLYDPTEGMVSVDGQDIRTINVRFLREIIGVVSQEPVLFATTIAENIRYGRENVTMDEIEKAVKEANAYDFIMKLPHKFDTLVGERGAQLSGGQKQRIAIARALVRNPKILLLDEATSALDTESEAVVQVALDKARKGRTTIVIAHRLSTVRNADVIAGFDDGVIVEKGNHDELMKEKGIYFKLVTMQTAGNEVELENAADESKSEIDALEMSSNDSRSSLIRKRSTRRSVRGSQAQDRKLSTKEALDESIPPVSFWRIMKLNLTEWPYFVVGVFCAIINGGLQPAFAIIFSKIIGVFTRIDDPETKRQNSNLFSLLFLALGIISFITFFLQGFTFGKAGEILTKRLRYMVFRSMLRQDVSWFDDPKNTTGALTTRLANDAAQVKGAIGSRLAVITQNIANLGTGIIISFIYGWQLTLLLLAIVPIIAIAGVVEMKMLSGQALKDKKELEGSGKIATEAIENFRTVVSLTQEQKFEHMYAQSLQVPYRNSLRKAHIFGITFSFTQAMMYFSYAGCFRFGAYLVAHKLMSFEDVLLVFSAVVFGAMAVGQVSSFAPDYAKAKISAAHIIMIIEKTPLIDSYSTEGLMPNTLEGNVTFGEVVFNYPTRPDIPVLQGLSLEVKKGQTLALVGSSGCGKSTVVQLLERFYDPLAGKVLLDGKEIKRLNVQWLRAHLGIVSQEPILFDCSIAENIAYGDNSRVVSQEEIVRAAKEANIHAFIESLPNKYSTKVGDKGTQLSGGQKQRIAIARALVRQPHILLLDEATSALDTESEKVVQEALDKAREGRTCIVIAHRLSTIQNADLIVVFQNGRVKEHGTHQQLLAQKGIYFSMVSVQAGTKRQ

- IC50 (hOCTN2 [2]; inhibition of 3H-carnitine uptake, CHO-TREx-hOCTN2 cells induced to express hOCTN2): 6.3 µM
- Direct Uptake Vmax (hOCTN2 [3]): 7.7 pmol/min/well
Molecule: C[N+](C)(C)CC(O)CC(=O)[O-] (centres unmarked) [Carnitine, carnitine]
- 3H-carnitine uptake in OCTN2-expressing oocytes versus noninjected controls (hOCTN2 [1]): higher levels of ^3H-carnitine uptake than noninjected controls
- uptake of labeled carnitine with increasing unlabeled carnitine (hOCTN2 [2]; cells induced to express OCTN2, unlabeled carnitine as competitor): uptake of labeled carnitine decreased as the concentration of unlabeled carnitine increased

- apical to basolateral transport (PgP; [5]): strongly increased
- basolateral to apical transport (PgP; [5]): strongly decreased
- PgP substrate status (PgP; concluded from transport with and without verapamil): substrate of PgP
Molecule: CC[C@]1(O)C[C@@H]2CN(CCc3c([nH]c4ccccc34)[C@@](C(=O)OC)(c3cc4c(cc3OC)N(C)[C@H]3[C@@](O)(C(=O)OC)[C@H](OC(C)=O)[C@]5(CC)C=CCN6CC[C@]43[C@@H]65)C2)C1 [^3H-vinblastine, vinblastine]

B1: hOCTN2 (Homo sapiens) (protein)
chain: MRDYDEVTAFLGEWGPFQRLIFFLLSASIIPNGFTGLSSVFLIATPEHRCRVPDAANLSSAWRNHTVPLRLRDGREVPHSCRRYRLATIANFSALGLEPGRDVDLGQLEQESCLDGWEFSQDVYLSTIVTEWNLVCEDDWKAPLTISLFFVGVLLGSFISGQLSDRFGRKNVLFVTMGMQTGFSFLQIFSKNFEMFVVLFVLVGMGQISNYVAAFVLGTEILGKSVRIIFSTLGVCIFYAFGYMVLPLFAYFIRDWRMLLVALTMPGVLCVALWWFIPESPRWLISQGRFEEAEVIIRKAAKANGIVVPSTIFDPSELQDLSSKKQQSHNILDLLRTWNIRMVTIMSIMLWMTISVGYFGLSLDTPNLHGDIFVNCFLSAMVEVPAYVLAWLLLQYLPRRYSMATALFLGGSVLLFMQLVPPDLYYLATVLVMVGKFGVTAAFSMVYVYTAELYPTVVRNMGVGVSSTASRLGSILSPYFVYLGAYDRFLPYILMGSLTILTAILTLFLPESFGTPLPDTIDQMLRVKGMKHRKTPSHTRMLKDGQERPTILKSTAF
notes: expressed in transfected cells; host or cells: CHO-TREx cells (CHO-TREx-OCTN2 inducible cell line)
- Km [4]: 300 µM
